In patent publication US8338465B2, “Cyclic carboxylic acid rhodanine derivatives for the treatment and prevention of tuberculosis” (priority 2006, dated 2012):
Where two headings read alike, the source gives them in different places.

Molecular target: T1, dihydrolipoamide acyltransferase (DlaT) (Mycobacterium tuberculosis, UniProt P9WIS7)
T1 sequence (P9WIS7 1-553): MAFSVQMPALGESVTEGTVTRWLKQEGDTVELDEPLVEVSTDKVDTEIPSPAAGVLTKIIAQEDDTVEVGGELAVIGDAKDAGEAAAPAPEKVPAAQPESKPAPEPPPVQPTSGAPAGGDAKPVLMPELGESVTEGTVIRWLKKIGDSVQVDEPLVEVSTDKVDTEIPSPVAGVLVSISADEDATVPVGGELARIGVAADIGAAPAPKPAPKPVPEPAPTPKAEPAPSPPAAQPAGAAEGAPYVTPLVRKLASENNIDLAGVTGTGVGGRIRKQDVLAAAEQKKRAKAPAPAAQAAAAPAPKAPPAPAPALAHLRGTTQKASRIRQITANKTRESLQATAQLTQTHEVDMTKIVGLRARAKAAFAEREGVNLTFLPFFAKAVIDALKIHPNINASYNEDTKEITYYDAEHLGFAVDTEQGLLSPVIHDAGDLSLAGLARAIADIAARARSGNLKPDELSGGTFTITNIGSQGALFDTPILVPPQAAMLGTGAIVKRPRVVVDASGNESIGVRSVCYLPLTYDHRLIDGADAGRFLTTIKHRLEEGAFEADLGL
Assay: DlaT inhibition (Dlat IC50); DTNB peroxidase assay with Lpd, DlaT and AhpD
Format: biochemical

[1] = Table 1, Compounds A1 to A294, read-out: Dlat IC50 category

SMILES | IC50 [1] [µM] | IC50 (Dlat IC50 category) [µM]
CSc1cccc(-c2ccc(C=C3SC(=S)N(c4cc(C(=O)O)ccc4F)C3=O)o2)c1 [Compound A237] | < 10 | 
CSc1ccc(-c2ccc(C=C3SC(=S)N(c4cccc(C(=O)O)c4)C3=O)o2)cc1 [Compound A238] | < 10 | 
CSc1ccc(-c2ccc(C=C3SC(=S)N(c4cc(C(=O)O)ccc4F)C3=O)o2)cc1 [Compound A239] | < 10 | 
CC(C)Oc1ccc(-c2ccc(C=C3SC(=S)N(c4cccc(C(=O)O)c4)C3=O)o2)cc1 [Compound A240] | < 10 | 
CC(C)Oc1ccc(-c2ccc(C=C3SC(=S)N(c4cc(C(=O)O)ccc4F)C3=O)o2)cc1 [Compound A241] | < 10 | 
Cc1ccc(-c2cccc(C=C3SC(=S)N(c4cccc(C(=O)O)c4)C3=O)c2)cc1 [Compound A242] | 11 to 40 | 
Cc1ccc(-c2cccc(C=C3SC(=S)N(c4cc(C(=O)O)ccc4F)C3=O)c2)cc1 [Compound A243] | < 10 | 
O=C(O)c1cccc(N2C(=O)C(=Cc3ccc(-c4ccccc4-c4ccccc4)o3)SC2=S)c1 [Compound A244] | < 10 | 
O=C(O)c1ccc(F)c(N2C(=O)C(=Cc3ccc(-c4ccccc4-c4ccccc4)o3)SC2=S)c1 [Compound A245] | < 10 | 
Cc1ccc(-c2ccc(C=C3SC(=S)N(c4cccc(C(=O)O)c4)C3=O)cc2)cc1 [Compound A246] | < 10 | 
Cc1ccc(-c2ccc(C=C3SC(=S)N(c4cc(C(=O)O)ccc4F)C3=O)cc2)cc1 [Compound A247] | 11 to 40 | 
Cc1ccc(-c2ccc(C=C3SC(=S)N(c4cc(C(=O)O)cc(C(F)(F)F)c4)C3=O)cc2)cc1 [Compound A248] | < 10 | 
CCc1ccccc1-c1ccc(C=C2SC(=S)N(c3cccc(C(=O)O)c3)C2=O)o1 [Compound A249] | < 10 | 
CCc1ccccc1-c1ccc(C=C2SC(=S)N(c3cc(C(=O)O)ccc3F)C2=O)o1 [Compound A250] | < 10 | 
O=C(O)c1cccc(N2C(=O)C(=Cc3nc(-c4ccccc4)cs3)SC2=S)c1 [Compound A251] | 11 to 40 | 
O=C(O)c1ccc(F)c(N2C(=O)C(=Cc3nc(-c4ccccc4)cs3)SC2=S)c1 [Compound A252] | 11 to 40 | 
COc1ccc(C)cc1-c1ccc(C=C2SC(=S)N(c3cccc(C(=O)O)c3)C2=O)o1 [Compound A253] | < 10 | 
COc1ccc(C)cc1-c1ccc(C=C2SC(=S)N(c3cc(C(=O)O)ccc3F)C2=O)o1 [Compound A254] | < 10 | 
O=C(O)c1cc(N2C(=O)C(=Cc3ccc(-c4ccccc4Cl)o3)SC2=S)ccc1F [Compound A255] | 11 to 40 | 
O=C(O)c1cc(N2C(=O)C(=Cc3ccc(-c4ccccc4F)o3)SC2=S)ccc1F [Compound A256] | 11 to 40 | 
Cc1ccccc1-c1ccc(C=C2SC(=S)N(c3ccc(F)c(C(=O)O)c3)C2=O)o1 [Compound A257] | 11 to 40 | 
O=C(O)c1cc(N2C(=O)C(=Cc3ccc(-c4ccc(Cl)cc4)o3)SC2=S)ccc1F [Compound A258] | < 10 | 
O=C(O)c1cc(N2C(=O)C(=Cc3ccc(-c4ccc(F)cc4)o3)SC2=S)ccc1F [Compound A259] | 11 to 40 | 
Cc1ccc(-c2ccc(C=C3SC(=S)N(c4ccc(F)c(C(=O)O)c4)C3=O)o2)cc1 [Compound A260] | < 10 | 

SMILES | IC50 [1] [µM] | IC50 (Dlat IC50 category) [µM]
CC(=O)Nc1ccc(-c2ccc(C=C3SC(=S)N(c4cc(C(=O)O)cc(C(F)(F)F)c4)C3=O)o2)cc1 [Compound A261] | < 10 | 
CC(=O)Nc1ccc(-c2ccc(C=C3SC(=S)N(c4ccc(F)c(C(=O)O)c4)C3=O)o2)cc1 [Compound A262] | 11 to 40 | 
CCCCc1ccc(-c2ccc(C=C3SC(=S)N(c4cccc(C(=O)O)c4)C3=O)o2)cc1 [Compound A263] | < 10 | 
CCCCc1ccc(-c2ccc(C=C3SC(=S)N(c4cc(C(=O)O)ccc4F)C3=O)o2)cc1 [Compound A264] | < 10 | 
CCCCc1ccc(-c2ccc(C=C3SC(=S)N(c4ccc(F)c(C(=O)O)c4)C3=O)o2)cc1 [Compound A265] | < 10 | 
CCCCc1ccc(-c2ccc(C=C3SC(=S)N(c4cc(C(=O)O)cc(C(F)(F)F)c4)C3=O)o2)cc1 [Compound A266] | < 10 | 
CS(=O)(=O)c1ccc(-c2ccc(C=C3SC(=S)N(c4cc(C(=O)O)cc(C(F)(F)F)c4)C3=O)o2)cc1 [Compound A267] | < 10 | 
CS(=O)(=O)c1ccc(-c2ccc(C=C3SC(=S)N(c4ccc(F)c(C(=O)O)c4)C3=O)o2)cc1 [Compound A268] | < 10 | 
CCCc1ccc(-c2ccc(C=C3SC(=S)N(c4cccc(C(=O)O)c4)C3=O)o2)cc1 [Compound A269] | < 10 | 
CCCc1ccc(-c2ccc(C=C3SC(=S)N(c4cc(C(=O)O)ccc4F)C3=O)o2)cc1 [Compound A270] | < 10 | 
CCCc1ccc(-c2ccc(C=C3SC(=S)N(c4ccc(F)c(C(=O)O)c4)C3=O)o2)cc1 [Compound A271] | < 10 | 
CCCc1ccc(-c2ccc(C=C3SC(=S)N(c4cc(C(=O)O)cc(C(F)(F)F)c4)C3=O)o2)cc1 [Compound A272] | 11 to 40 | 
CN(C)c1ccc(N2C(=O)C(=Cc3ccc(-c4ccccc4Cl)o3)SC2=S)cc1C(=O)O [Compound A274] | 11 to 40 | 
CN(C)c1ccc(N2C(=O)C(=Cc3ccc(-c4cccc(Cl)c4)o3)SC2=S)cc1C(=O)O [Compound A275] | 11 to 40 | 
O=C(O)c1cc(N2C(=O)C(=Cc3ccc(-c4ccccc4OCc4ccccc4)o3)SC2=S)ccc1F [Compound A279] | < 10 | 
O=C(O)c1cc(N2C(=O)C(=Cc3ccc(-c4ccccc4C(F)(F)F)o3)SC2=S)ccc1F [Compound A280] | 11 to 40 | 
O=C(O)c1cc(N2C(=O)C(=Cc3ccc(-c4ccccc4OC(F)(F)F)o3)SC2=S)ccc1F [Compound A281] | < 10 | 
CSc1ccccc1-c1ccc(C=C2SC(=S)N(c3ccc(F)c(C(=O)O)c3)C2=O)o1 [Compound A282] | < 10 | 
O=C(O)c1cc(N2C(=O)C(=Cc3ccc(-c4ccccc4Oc4ccccc4)o3)SC2=S)ccc1F [Compound A283] | < 10 | 
O=C(O)c1cc(N2C(=O)C(=Cc3ccc(-c4ccccc4-c4ccccc4)o3)SC2=S)ccc1F [Compound A284] | < 10 | 
CNS(=O)(=O)c1ccc(-c2ccc(C=C3SC(=S)N(c4cccc(C(=O)O)c4)C3=O)o2)cc1 [Compound A286] | 11 to 40 | 
CNS(=O)(=O)c1ccc(-c2ccc(C=C3SC(=S)N(c4ccc(F)c(C(=O)O)c4)C3=O)o2)cc1 [Compound A287] | 11 to 40 | 
NS(=O)(=O)c1ccc(-c2ccc(C=C3SC(=S)N(c4cccc(C(=O)O)c4)C3=O)o2)cc1 [Compound A288] | 11 to 40 | 
O=C(O)c1ccc(-c2ccc(C=C3SC(=S)N(c4ccccc4)C3=O)o2)cc1O [Compound A289] | < 10 | 

SMILES | IC50 [1] [µM] | IC50 (Dlat IC50 category) [µM]
O=C(O)c1ccc(-c2ccc(C=C3SC(=S)N(c4cccc(O)c4)C3=O)o2)cc1 [Compound A290] | < 10 | 
O=C(O)c1ccc(-c2ccc(C=C3SC(=S)N(c4ccc(O)cc4)C3=O)o2)cc1 [Compound A291] | < 10 | 
NC(=O)c1cccc(N2C(=O)C(=Cc3ccc(-c4ccc(C(=O)O)cc4)o3)SC2=S)c1 [Compound A293] | 11 to 40 | 
NS(=O)(=O)c1ccc(N2C(=O)C(=Cc3ccc(-c4ccc(C(=O)O)cc4)o3)SC2=S)cc1 [Compound A294] | < 10 | 
O=C(O)C(c1ccccc1)N1C(=O)C(=Cc2ccc(-c3ccccc3Cl)o2)SC1=S (stereo not shown) [Compound B1] |  | < 10
O=C(O)C(c1ccccc1)N1C(=O)C(=Cc2ccc(-c3cccc(Cl)c3)o2)SC1=S (stereo not shown) [Compound B2] |  | < 10
O=C(O)CCN1C(=O)C(=Cc2ccc(-c3cccc(C(F)(F)F)c3)o2)SC1=S [Compound B3] |  | < 10
O=C(O)CCN1C(=O)C(=Cc2ccc(-c3ccccc3C(F)(F)F)o2)SC1=S [Compound B4] |  | 11 to 40
O=C(O)CCN1C(=O)C(=Cc2ccc(-c3ccccc3Cl)o2)SC1=S [Compound B5] |  | 11 to 40
O=C(O)CN1C(=O)C(=Cc2ccc(-c3ccccc3Cl)o2)SC1=S [Compound B6] |  | 11 to 40
O=C(O)CCN1C(=O)C(=Cc2cccc(-c3ccccc3Cl)n2)SC1=S [Compound B7] |  | 41 to 80
O=C(O)C(c1ccccc1)N1C(=O)C(=Cc2cccc(-c3ccccc3Cl)n2)SC1=S (stereo not shown) [Compound B8] |  | 11 to 40
O=C(O)C(c1ccccc1)N1C(=O)C(=Cc2ccc(-c3ccc(Cl)cc3)o2)SC1=S (stereo not shown) [Compound B9] |  | < 10
O=C(O)C(c1ccccc1)N1C(=O)C(=Cc2ccc(-c3ccc(Cl)c(Cl)c3)o2)SC1=S (stereo not shown) [Compound B10] |  | < 10
O=C(O)CCCCCN1C(=O)C(=Cc2ccc(-c3ccccc3Cl)o2)SC1=S [Compound B11] |  | < 10
O=C(O)CCCCCN1C(=O)C(=Cc2ccc(-c3cccc(Cl)c3)o2)SC1=S [Compound B12] |  | < 10
O=C(O)CCCCCN1C(=O)C(=Cc2ccc(-c3ccc(Cl)cc3)o2)SC1=S [Compound B13] |  | < 10
O=C(O)CCCCCN1C(=O)C(=Cc2ccc(-c3ccc(Cl)c(Cl)c3)o2)SC1=S [Compound B14] |  | < 10
O=C(O)CCCCCN1C(=O)C(=Cc2cccc(-c3ccccc3Cl)n2)SC1=S [Compound B15] |  | 11 to 40
O=C(O)CN1C(=O)C(=Cc2ccc(-c3ccc(-c4ccccc4)cc3)o2)SC1=S [Compound B16] |  | < 10
O=C(O)CCN1C(=O)C(=Cc2ccc(-c3ccc(-c4ccccc4)cc3)o2)SC1=S [Compound B17] |  | 11 to 40
O=C(O)CCCCCN1C(=O)C(=Cc2ccc(-c3ccc(-c4ccccc4)cc3)o2)SC1=S [Compound B18] |  | < 10
